# Measurements taken from US12156880B2, “Heterocyclic RIP1 kinase inhibitors” (Rigel Pharmaceuticals, Inc., priority 2021, dated 2024).
# Tests used:
# RIPK1 = biological target: T1, RIPK1 (Homo sapiens, UniProt Q13546); experiment: RIPK1 ADP-Glo biochemical kinase assay; settings: read-out: RIPK1 ADP-Glo Kinase (IC50)
# T1 sequence (Q13546 1-671): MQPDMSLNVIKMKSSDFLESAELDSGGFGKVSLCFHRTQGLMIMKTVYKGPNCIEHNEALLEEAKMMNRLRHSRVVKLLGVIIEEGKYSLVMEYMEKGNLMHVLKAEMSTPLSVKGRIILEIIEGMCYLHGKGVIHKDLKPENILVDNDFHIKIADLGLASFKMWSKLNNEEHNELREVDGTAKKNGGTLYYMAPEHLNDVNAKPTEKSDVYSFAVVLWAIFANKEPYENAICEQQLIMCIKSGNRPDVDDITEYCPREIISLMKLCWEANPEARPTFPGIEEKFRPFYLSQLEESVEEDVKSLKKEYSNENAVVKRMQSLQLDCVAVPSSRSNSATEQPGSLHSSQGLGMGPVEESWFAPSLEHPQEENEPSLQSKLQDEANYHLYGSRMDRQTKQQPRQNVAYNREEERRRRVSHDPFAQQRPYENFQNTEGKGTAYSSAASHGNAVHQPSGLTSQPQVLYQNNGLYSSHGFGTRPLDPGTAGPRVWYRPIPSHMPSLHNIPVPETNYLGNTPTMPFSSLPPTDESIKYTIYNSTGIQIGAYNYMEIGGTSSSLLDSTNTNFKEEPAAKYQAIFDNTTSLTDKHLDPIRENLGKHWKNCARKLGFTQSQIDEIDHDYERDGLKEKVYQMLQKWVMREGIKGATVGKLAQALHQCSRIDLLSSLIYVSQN
# How it was run: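 RIPK1 at 31 ng/well in Tris pH 7.4 buffer with MgCl2, BSA, DTT and MnCl2, reacted with compounds (duplicate) for 30 min at 30 °C. ADP formed detected by ADP-Glo: 40 min stop/depletion, then 30 min detection reagent at room temperature; luminescence read.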
# L929 cells = experiment: L929 cell necroptosis assay (TNFa + zVAD, CellTiter-Glo recovery); assay type: cell-based, murine; settings: Mus musculus, L929, 18 h, TNFa 2 ng/mL + zVAD-fmk, read-out: L929-CTG-recovery, L929, TNFa + zVAD (IC50)
# How it was run: (§1)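 Human U937 (50K/well, 60 uM zVAD-fmk medium, plated same day) or murine L929 (10K/well, plated 18 h, then 40 uM zVAD-fmk medium) were grown in RPMI with 10% FBS. Both were pretreated with compound for 1 h at 37 °C before TNFa at 2 ng/mL final. Viability was read by CellTiter-Glo luminescence after 18 h.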
# U937 cells = experiment: U937 cell necroptosis assay (TNFa + zVAD, CellTiter-Glo recovery); assay type: cell-based; settings: Homo sapiens, U-937, 18 h, TNFa 2 ng/mL + zVAD-fmk, read-out: U937 Zvad TNF CTG Recovery, U937, TNFa + zVAD (IC50)
# How it was run: as §1
# [1] = Brain penetration: free brain/plasma ratio in in vivo pharmacokinetic studies; settings: brain and plasma (unbound); in vivo pharmacokinetic studies in rodents; read-out: free brain/plasma ratio (Bu/Pu)
# Procedure: Female C57BL/6 mice are randomly grouped and weighed on Day −1. On the day of the study (Day 0), mice are administered vehicle or test article by oral gavage. Fifteen minutes after oral administration of test agents, each mouse is administered an intraperitoneal (IP) injection of solution containing recombinant human tumor necrosis factor alpha (TNF-a, 25.0 μg) and zVAD-FMK (200 μg). Body temperature is measured at 0 hours (before IP injections) and every hour via rectal probe temperature measuring device. Three (3) hours after IP injections of TNF-a and zVAD/FMK, mice are euthanized by CO2 asphyxiation and blood is collected via cardiac puncture. Serum and plasma are harvested for determination of cytokine and compound levels, respectively. Separate groups of mice (satellite mice) are included for the determination of compound levels in plasma at the time of administration of TNFa/zVAD-FMK. […] Brain penetration may be assessed by evaluating free brain/plasma ratio (Bu/Pu) as measured in vivo pharmacokinetic studies in rodents. […] In this method, the passive membrane permeability (Papp) and the P-gp (P-glycoprotein) substrate efflux potential are determined using a MDCKII-MDR1 cell line as an in vitro model of the effective permeability of a compound through the BBB.
IC50 (RIPK1),"Kp,uu (unbound brain/plasma ratio) [1]",Compound,IC50 (L929 cells),IC50 (U937 cells)
0.0164 µM,1.7,"Cc1cccc(Cc2cnn(C(=O)N[C@H]3COc4ccc(C#CC5CCOCC5)cc4N(C)C3=O)c2)n1 [I-104, (S)—N-(5-Methyl-4-oxo-7-((tetrahydro-2H-pyran-4-yl)ethynyl)-2,3,4,5-tetrahydrobenzo[b][1,4]oxazepin-3-yl)-4-((6-methylpyridin-2-yl)methyl)-1H-pyrazole-1-carboxamide]",0.19 µM,0.0073 µM
0.0172 µM,11,"Cc1cccc(Cc2cnn(C(=O)N[C@H]3CCc4ccc(C#CC5(O)COC5)cc4N(C)C3=O)c2)n1 [I-120, (S)—N-(8-((3-Hydroxyoxetan-3-yl)ethynyl)-1-methyl-2-oxo-2,3,4,5-tetrahydro-1H-benzo[b]azepin-3-yl)-4-((6-methylpyridin-2-yl)methyl)-1H-pyrazole-1-carboxamide]",0.233 µM,0.0095 µM
0.0153 µM,–,"CN1C(=O)[C@@H](NC(=O)c2cc(Oc3cnn(C)c3)ccn2)COc2ccc(C#CC(C)(C)O)cc21 [I-126, (S)—N-(7-(3-hydroxy-3-methylbut-1-yn-1-yl)-5-methyl-4-oxo-2,3,4,5-tetrahydrobenzo[b][1,4]oxazepin-3-yl)-4-((1-methyl-1H-pyrazol-4-yl)oxy)picolinamide]",0.155 µM,0.0089 µM
0.015 µM,–,"CN1C(=O)[C@@H](NC(=O)c2cc(Oc3cnn(C)c3)ccn2)COc2ccc(C#CC3(O)COC3)cc21 [I-127, (S)—N-(7-((3-hydroxyoxetan-3-yl)ethynyl)-5-methyl-4-oxo-2,3,4,5-tetrahydrobenzo[b][1,4]oxazepin-3-yl)-4-((1-methyl-1H-pyrazol-4-yl)oxy)picolinamide]",0.198 µM,0.0067 µM
0.0334 µM,–,"Cc1cccc(Oc2ccnc(C(=O)N[C@H]3COc4ccc(C#CC(C)(C)O)cc4N(C)C3=O)c2)n1 [I-130, (S)—N-(7-(3-hydroxy-3-methylbut-1-yn-1-yl)-5-methyl-4-oxo-2,3,4,5-tetrahydrobenzo[b][1,4]oxazepin-3-yl)-4-((6-methylpyridin-2-yl)oxy)picolinamide]",5.04 µM,0.311 µM
0.0245 µM,–,"Cc1cccc(Oc2ccnc(C(=O)N[C@H]3COc4ccc(C#CC5(O)COC5)cc4N(C)C3=O)c2)n1 [I-131, (S)—N-(7-((3-hydroxyoxetan-3-yl)ethynyl)-5-methyl-4-oxo-2,3,4,5-tetrahydrobenzo[b][1,4]oxazepin-3-yl)-4-((6-methylpyridin-2-yl)oxy)picolinamide]",2.67 µM,0.263 µM
0.0242 µM,–,"CN1C(=O)[C@@H](NC(=O)c2cc(Oc3cnn(C)c3)ccn2)COc2ccc(C#CC(C)(C)C)cc21 [I-132, (S)—N-(7-(3,3-dimethylbut-1-yn-1-yl)-5-methyl-4-oxo-2,3,4,5-tetrahydrobenzo[b][1,4]oxazepin-3-yl)-4-((1-methyl-1H-pyrazol-4-yl)oxy)picolinamide]",0.0718 µM,0.0041 µM
0.014 µM,–,"CN1C(=O)[C@@H](NC(=O)c2cc(Oc3cnn(C)c3)ccn2)COc2ccc(C#CC3(O)CCC3)cc21 [I-133, (S)—N-(7-((1-hydroxycyclobutyl)ethynyl)-5-methyl-4-oxo-2,3,4,5-tetrahydrobenzo[b][1,4]oxazepin-3-yl)-4-((1-methyl-1H-pyrazol-4-yl)oxy)picolinamide]",0.0582 µM,0.0052 µM
0.0077 µM,–,"CN1C(=O)[C@@H](NC(=O)c2cc(Oc3cnn(C)c3)ccn2)COc2ccc(C#CC3CCOCC3)cc21 [I-136, (S)-4-((1-methyl-1H-pyrazol-4-yl)oxy)-N-(5-methyl-4-oxo-7-((tetrahydro-2H-pyran-4-yl)ethynyl)-2,3,4,5-tetrahydrobenzo[b][1,4]oxazepin-3-yl)picolinamide]",0.0054 µM,0.0007 µM
0.0119 µM,–,"CN1C(=O)[C@@H](NC(=O)c2cc(Cc3cocn3)ccn2)COc2ccc(C#CC(C)(C)O)cc21 [I-137, (S)—N-(7-(3-hydroxy-3-methylbut-1-yn-1-yl)-5-methyl-4-oxo-2,3,4,5-tetrahydrobenzo[b][1,4]oxazepin-3-yl)-4-(oxazol-4-ylmethyl)picolinamide]",0.0874 µM,0.0255 µM
